Reference: ChEMBL document CHEMBL4011590, “Structure-activity relationship studies on 3,5-dinitrophenyl tetrazoles as antitubercular agents” (Eur J Med Chem, 2017)

How the values were obtained:
Klebsiella pneumoniae [1] = test: Antibacterial activity against extended spectrum beta-lactamase producing Klebsiella pneumoniae HK14368/08 after 24 hrs by broth microdilution method; assay type: functional; conditions: HK14368/08, 24 h
Mycobacterium kansasii [2] = test: Antimycobacterial activity against Mycobacterium kansasii isolate 6509/96 after 21 days by micromethod; assay type: functional; conditions: isolate 6509/96, 504 h
Klebsiella pneumoniae [3] = test: Antibacterial activity against extended spectrum beta-lactamase producing Klebsiella pneumoniae HK14368/08 after 48 hrs by broth microdilution method; assay type: functional; conditions: HK14368/08, 48 h
Mycobacterium avium [4] = test: Antimycobacterial activity against Mycobacterium avium CNCTC My 330/80 after 14 days by micromethod; assay type: functional; conditions: CNCTC My 330/80, 336 h
Staphylococcus aureus [5] = test: Antibacterial activity against Staphylococcus aureus ATCC 6538 after 48 hrs by broth microdilution method; assay type: functional; conditions: ATCC 6538, 48 h
[6] = system: Staphylococcus epidermidis; test: Antibacterial activity against Staphylococcus epidermidis HK6966/08 after 24 hrs by broth microdilution method; assay type: functional; conditions: HK6966/08, 24 h
Nakaseomyces glabratus [7] = test: Antifungal activity against Candida glabrata 20/I after 24 hrs by broth microdilution method; assay type: functional
[8] = system: Trichophyton mentagrophytes; test: Antifungal activity against Trichophyton mentagrophytes 445 after 120 hrs by broth microdilution method; assay type: functional; conditions: Trichophyton mentagrophytes, 445, 120 h
Staphylococcus aureus [9] = test: Antibacterial activity against Staphylococcus aureus ATCC 6538 after 24 hrs by broth microdilution method; assay type: functional; conditions: ATCC 6538, 24 h
Candida tropicalis [10] = test: Antifungal activity against Candida tropicalis 156 after 24 hrs by broth microdilution method; assay type: functional; conditions: Candida tropicalis, 156, 24 h
Lichtheimia corymbifera [11] = test: Antifungal activity against Absidia corymbifera 272 after 24 hrs by broth microdilution method; assay type: functional; conditions: Lichtheimia corymbifera, 272, 24 h
[12] = system: Mycobacterium tuberculosis; test: Antimycobacterial activity against Mycobacterium tuberculosis H37Rv CNCTC My 331/88 after 21 days by micromethod; assay type: functional; conditions: H37Rv CNCTC My 331/88, 504 h
Escherichia coli [13] = test: Antibacterial activity against Escherichia coli ATCC 8739 after 48 hrs by broth microdilution method; assay type: functional; conditions: ATCC 8739, 48 h
Mycobacterium kansasii [14] = test: Antimycobacterial activity against Mycobacterium kansasii CNCTC My 235/80 after 7 days by micromethod; assay type: functional; conditions: CNCTC My 235/80, 168 h
Pichia kudriavzevii [15] = test: Antifungal activity against Candida krusei E28 after 48 hrs by broth microdilution method; assay type: functional; conditions: E28, 48 h
Staphylococcus aureus [16] = test: Antibacterial activity against methicillin-resistant Staphylococcus aureus HK5996/08 after 24 hrs by broth microdilution method; assay type: functional; conditions: HK5996/08, 24 h
Aspergillus fumigatus [17] = test: Antifungal activity against Aspergillus fumigatus 231 after 48 hrs by broth microdilution method; assay type: functional; conditions: Aspergillus fumigatus, 231, 48 h
Enterococcus sp. [18] = test: Antibacterial activity against Enterococcus sp. HK14365/08 after 24 hrs by broth microdilution method; assay type: functional; conditions: HK14365/08, 24 h
Candida albicans [19] = test: Antifungal activity against Candida albicans ATCC 44859 after 48 hrs by broth microdilution method; assay type: functional; conditions: ATCC 44859, 48 h
[20] = system: Trichophyton mentagrophytes; test: Antifungal activity against Trichophyton mentagrophytes 445 after 72 hrs by broth microdilution method; assay type: functional; conditions: Trichophyton mentagrophytes, 445, 72 h
Mycobacterium kansasii [21] = test: Antimycobacterial activity against Mycobacterium kansasii CNCTC My 235/80 after 21 days by micromethod; assay type: functional; conditions: CNCTC My 235/80, 504 h
[22] = system: Staphylococcus epidermidis; test: Antibacterial activity against Staphylococcus epidermidis HK6966/08 after 48 hrs by broth microdilution method; assay type: functional; conditions: HK6966/08, 48 h
CHO-K1 = test: Cytotoxicity against CHOK1 cells after 24 hrs by MTT assay; assay type: cell-based; conditions: Cricetulus griseus, CHO-K1, 24 h
Staphylococcus aureus [23] = test: Antibacterial activity against methicillin-resistant Staphylococcus aureus HK5996/08 after 48 hrs by broth microdilution method; assay type: functional; conditions: HK5996/08, 48 h
Candida tropicalis [24] = test: Antifungal activity against Candida tropicalis 156 after 48 hrs by broth microdilution method; assay type: functional; conditions: Candida tropicalis, 156, 48 h
Klebsiella pneumoniae [25] = test: Antibacterial activity against Klebsiella pneumoniae HK11750/08 after 48 hrs by broth microdilution method; assay type: functional; conditions: HK11750/08, 48 h
Klebsiella pneumoniae [26] = test: Antibacterial activity against Klebsiella pneumoniae HK11750/08 after 24 hrs by broth microdilution method; assay type: functional; conditions: HK11750/08, 24 h
Nakaseomyces glabratus [27] = test: Antifungal activity against Candida glabrata 20/I after 48 hrs by broth microdilution method; assay type: functional
Pseudomonas aeruginosa [28] = test: Antibacterial activity against Pseudomonas aeruginosa ATCC 9027 after 48 hrs by broth microdilution method; assay type: functional; conditions: ATCC 9027, 48 h
Trichosporon asahii [29] = test: Antifungal activity against Trichosporon asahii 1188 after 24 hrs by broth microdilution method; assay type: functional; conditions: Trichosporon asahii, 1188, 24 h
Mycobacterium kansasii [30] = test: Antimycobacterial activity against Mycobacterium kansasii isolate 6509/96 after 7 days by micromethod; assay type: functional; conditions: isolate 6509/96, 168 h
[31] = system: Mycobacterium tuberculosis; test: Antimycobacterial activity against Mycobacterium tuberculosis H37Rv CNCTC My 331/88 after 14 days by micromethod; assay type: functional; conditions: H37Rv CNCTC My 331/88, 336 h
Pichia kudriavzevii [32] = test: Antifungal activity against Candida krusei E28 after 24 hrs by broth microdilution method; assay type: functional; conditions: E28, 24 h
Aspergillus fumigatus [33] = test: Antifungal activity against Aspergillus fumigatus 231 after 24 hrs by broth microdilution method; assay type: functional; conditions: Aspergillus fumigatus, 231, 24 h
Escherichia coli [34] = test: Antibacterial activity against Escherichia coli ATCC 8739 after 24 hrs by broth microdilution method; assay type: functional; conditions: ATCC 8739, 24 h
Trichosporon asahii [35] = test: Antifungal activity against Trichosporon asahii 1188 after 48 hrs by broth microdilution method; assay type: functional; conditions: Trichosporon asahii, 1188, 48 h
Mycobacterium avium [36] = test: Antimycobacterial activity against Mycobacterium avium CNCTC My 330/80 after 21 days by micromethod; assay type: functional; conditions: CNCTC My 330/80, 504 h
Candida albicans [37] = test: Antifungal activity against Candida albicans ATCC 44859 after 24 hrs by broth microdilution method; assay type: functional; conditions: ATCC 44859, 24 h
Mycobacterium kansasii [38] = test: Antimycobacterial activity against Mycobacterium kansasii isolate 6509/96 after 14 days by micromethod; assay type: functional; conditions: isolate 6509/96, 336 h
Lichtheimia corymbifera [39] = test: Antifungal activity against Absidia corymbifera 272 after 48 hrs by broth microdilution method; assay type: functional; conditions: Lichtheimia corymbifera, 272, 48 h
Mycobacterium kansasii [40] = test: Antimycobacterial activity against Mycobacterium kansasii CNCTC My 235/80 after 14 days by micromethod; assay type: functional; conditions: CNCTC My 235/80, 336 h
Pseudomonas aeruginosa [41] = test: Antibacterial activity against Pseudomonas aeruginosa ATCC 9027 after 24 hrs by broth microdilution method; assay type: functional; conditions: ATCC 9027, 24 h
Enterococcus sp. [42] = test: Antibacterial activity against Enterococcus sp. HK14365/08 after 48 hrs by broth microdilution method; assay type: functional; conditions: HK14365/08, 48 h

O=[N+]([O-])c1cc(-c2nnn(Cc3ccc(Cl)cc3)n2)cc([N+](=O)[O-])c1
15.6 µM: MIC [6] | MIC [22]
> 500 µM: MIC (Klebsiella pneumoniae [1]) | MIC (Klebsiella pneumoniae [3]) | MIC (Nakaseomyces glabratus [7]) | MIC [8] | MIC (Lichtheimia corymbifera [11]) | MIC (Escherichia coli [13]) | MIC (Pichia kudriavzevii [15]) | MIC (Staphylococcus aureus [16]) | MIC (Aspergillus fumigatus [17]) | MIC (Enterococcus sp. [18]) | MIC (Candida albicans [19]) | MIC [20] | MIC (Staphylococcus aureus [23]) | MIC (Klebsiella pneumoniae [25]) | MIC (Klebsiella pneumoniae [26]) | MIC (Nakaseomyces glabratus [27]) | MIC (Pseudomonas aeruginosa [28]) | MIC (Pichia kudriavzevii [32]) | MIC (Aspergillus fumigatus [33]) | MIC (Escherichia coli [34]) | MIC (Candida albicans [37]) | MIC (Lichtheimia corymbifera [39]) | MIC (Pseudomonas aeruginosa [41]) | MIC (Enterococcus sp. [42])
31.2 µM: MIC (Staphylococcus aureus [5]) | MIC (Staphylococcus aureus [9])
250 µM: MIC (Candida tropicalis [10]) | MIC (Candida tropicalis [24])
170 µM: IC50 (CHO-K1)
500 µM: MIC (Trichosporon asahii [29]) | MIC (Trichosporon asahii [35])
8 µM: MIC99 (Mycobacterium avium [4]) | MIC99 (Mycobacterium avium [36])
0.25 µM: MIC99 [12] | MIC99 (Mycobacterium kansasii [14]) | MIC99 [31]
0.5 µM: MIC99 (Mycobacterium kansasii [30])
2 µM: MIC99 (Mycobacterium kansasii [2]) | MIC99 (Mycobacterium kansasii [21])
1 µM: MIC99 (Mycobacterium kansasii [38]) | MIC99 (Mycobacterium kansasii [40])

COc1cccc(-n2nnnc2SCn2nnc(-c3cc([N+](=O)[O-])cc([N+](=O)[O-])c3)n2)c1
2 µM: MIC99 (Mycobacterium kansasii [21])
0.03 µM: MIC99 [12] | MIC99 [31]
0.5 µM: MIC99 (Mycobacterium kansasii [30])
8 µM: MIC99 (Mycobacterium avium [4])
> 500 µM: MIC (Nakaseomyces glabratus [7]) | MIC [8] | MIC (Candida tropicalis [10]) | MIC (Lichtheimia corymbifera [11]) | MIC (Pichia kudriavzevii [15]) | MIC (Aspergillus fumigatus [17]) | MIC (Candida albicans [19]) | MIC [20] | MIC (Candida tropicalis [24]) | MIC (Nakaseomyces glabratus [27]) | MIC (Trichosporon asahii [29]) | MIC (Pichia kudriavzevii [32]) | MIC (Aspergillus fumigatus [33]) | MIC (Trichosporon asahii [35]) | MIC (Candida albicans [37]) | MIC (Lichtheimia corymbifera [39])
1 µM: MIC99 (Mycobacterium kansasii [2]) | MIC99 (Mycobacterium kansasii [14]) | MIC99 (Mycobacterium kansasii [38]) | MIC99 (Mycobacterium kansasii [40])
135 µM: IC50 (CHO-K1)
16 µM: MIC99 (Mycobacterium avium [36])
> 125 µM: MIC (Klebsiella pneumoniae [1]) | MIC (Klebsiella pneumoniae [3]) | MIC (Staphylococcus aureus [5]) | MIC [6] | MIC (Staphylococcus aureus [9]) | MIC (Escherichia coli [13]) | MIC (Staphylococcus aureus [16]) | MIC (Enterococcus sp. [18]) | MIC [22] | MIC (Staphylococcus aureus [23]) | MIC (Klebsiella pneumoniae [25]) | MIC (Klebsiella pneumoniae [26]) | MIC (Pseudomonas aeruginosa [28]) | MIC (Escherichia coli [34]) | MIC (Pseudomonas aeruginosa [41]) | MIC (Enterococcus sp. [42])
